This is an account of results in patent publication US8501153B2, “Active enantiomer” (GE Healthcare Limited, priority 2009, dated 2013).

One series addresses T1, Wistar rat heart PBR (Rattus norvegicus, UniProt P16257).
T1 construct: from tissue; host or cells: Wistar rat heart
Kind of series: In vitro potency assay, competition binding against [3H]PK-11195, rat heart PBR. As to the method:
(§1) Affinity for PBR was screened using a method adapted from Le Fur et al (Life Sci. 1983; USA 33: 449-57). Non-radioactive analogues of the PET tracer of the invention and the associated racemate were tested. Each test compound (dissolved in 50 mM Tris-HCl, pH 7.4, 10 mM MgCl2 containing 1% DMSO) competed for binding to either Wistar rat heart PBR or human PBR against 0.3 nM [^3H] PK-11195. The reaction was carried out in 50 mM Tris-HCl, pH 7.4 10 mM MgCl2 for 15 minutes at 25° C.

A further series deals with human PBR (Homo sapiens, UniProt P30536). Kind of series: In vitro potency assay, competition binding against [3H]PK-11195, human PBR. On the procedure: as §1
Series [1] is described as follows: In vitro chiral stability assay in human plasma. It is filed as in vitro ADME. Particulars: non-radioactive; 37° C., 4 hours; chiral HPLC. On the procedure: (§2) The non-radioactive PET tracer of the invention obtained according to Example 2 was incubated (37° C.) in human plasma or in rat liver S9 fraction up to 4 hours. The enantiomers were extracted from the biological material by precipitation of proteins. The solid precipitate was separated from the liquid phase, which was evaporated to dryness. The dry residue was dissolved in acetonitrile.
(§3) A Dionex Ultimate 3000 HPLC system consisting of two pumps (micro pump LPG-3000 and Ultimate 3000 pump), a UV/visible detector, an auto sampler and two switching valves was applied in this study. One switching valve was connecting the two pumps and the auto sampler. This set-up made it possible to use either of the pumps to inject into the column. The pump used for injection was connected to the SPE column only. After the injection and elution the SPE column was washed using the injection pump. The system was made ready for a new injection while the chiral analysis was ongoing.
(§4) The other switching valve connected the analytical column and the SPE column. […]
(§5) Elution from the SPE column and separation: The elution started using mobile phase mixture of 10% MeCN and 90% 10 mM ammonium acetate. […] The analytical column was washed for 3 min using 70% MeCN/MeOH and then stabilized at 10% MeCN/MeOH to make the separation system ready for the next injection. […]

The nature of series [2]: In vitro chiral stability assay in rat liver S9 fraction. The following applies: non-radioactive; 37° C., 4 hours; chiral HPLC. It is filed as in vitro ADME. As to the method: as §2, §3, §4, §5
The target in series [3] is T2, PBR (Rattus norvegicus, UniProt P16257).
T2 construct: Various tissues including brain stem and olfactory bulb were removed from the animals; from tissue; host or cells: Wistar rat, in vivo tissues (A7); frozen sections of brain stem and olfactory bulb (A8)
Kind of series: In vivo blocking assay (biodistribution after pre-administration of PK11195 or non-radioactive analogue). Details: species or system Wistar rats. Particulars: 30 min after injection; for Blood (% of vehicle), PK11195 block / Lungs (% of vehicle), PK11195 block / Muscle (% of vehicle), PK11195 block / Olfactory bulb uptake (% of vehicle), PK11195 block / Striata uptake (% of vehicle), PK11195 block: PK11195 3 mg/kg 5 min before tracer; for Blood (% of vehicle), Non-radioactive Analogue block / Lungs (% of vehicle), Non-radioactive Analogue block / Muscle (% of vehicle), Non-radioactive Analogue block / Olfactory bulb uptake (% of vehicle), Non-radioactive Analogue block / Striata uptake (% of vehicle), Non-radioactive Analogue block: non-radioactive analogue 3 mg/kg 5 min before tracer. As to the method: The in vivo biodistributions of the PET tracer of the invention compared with its associated racemate were tested after pre-administration of their respective non-radioactive analogues, or pre-administration of the known PBR-specific ligand, PK11195.
PK11195 or a non-radioactive analogue (both at 3 mg/kg) was administered 5 min before the radiolabelled test compound.

Series [4] addresses T2, PBR. Put plainly: Facial nerve axotomy model of inflammation, in vitro autoradiography of tissue sections. In kind it is binding, Wistar rats. The following applies: for Naïve brain stem % specific binding, Unlabelled ligand / Olfactory bulb % specific binding, Unlabelled ligand / FNA brain stem % specific binding, Unlabelled ligand: blocked with non-radioactive PET tracer at 1 μM; for Naïve brain stem % specific binding, PK11195 / Olfactory bulb % specific binding, PK11195 / FNA brain stem % specific binding, PK11195: blocked with non-radioactive PK11195 at 1 μM; for FNA brain stem % specific binding, Unlabelled ligand / FNA brain stem % specific binding, PK11195: facial nerve axotomy. As to the method: Binding to a focal site of neuroinflammation was tested by autoradiography.
Male Wistar rats (200-300 g) were either used naïve, or underwent a facial nerve axotomy according to the procedure described by Graeber and Kreutzberg (J Neurocytol 1986; 15: 363-373). Various tissues including brain stem and olfactory bulb were removed from the animals and rapidly frozen in isopentane then stored at −70° C. until use. Tissues were sectioned (12 μm) and thaw-mounted onto Superfrost Plus slides. Slides were stored at −70° C. until use.
The slides were air dried prior to pre-incubation in Tris-HCl buffer (170 mM, pH 7.4) for 5 min at room temperature. 1000-fold excess of non-radioactive PK11195 at 1 μM, or non-radioactive PET tracer of the invention at 1 μM was added prior to incubation with Tris-HCl buffer (170 mM, pH 7.4) containing […] of test compound for 60 minutes. The reaction was then terminated by rinsing the sections two times for 5 mins each in ice-cold buffer (Tris-HCl, 170 mM, pH 7.4) and then the slides were dipped briefly in distilled water to rinse. Next the slides were dried in air and exposed to x-ray film. When exposing to x-ray film, a reference standard was included, for in vitro autoradiography a reference sample (20μ) was taken from the solution and placed on filter paper (taped onto a glass) and exposed together with the sections. The film was exposed for 24 hours and the data were analysed by drawing regions of interest around the specific anatomic structures as well as around the blocked samples, references and background using MCID software using a density gradient scale as a calibration curve adjusted to the reference sample.

The nature of another series: In vivo biodistribution. Particulars: for OB:Str 30 min: olfactory bulb to striata ratio; for OB:Str 30 min / OB 30 min: 30 min after injection; for OB 30 min: olfactory bulb, i.v.; for OB 30 min / Brain 2 min: rat; for Brain 2 min: i.v. tail vein, 2 min after injection.
A short description of series [5]: In vivo metabolism study (% parent in brain and plasma by HPLC). Particulars: for Brain (% parent) 10 min pi / Brain (% parent) 30 min pi / Brain (% parent) 60 min pi: rat brain; for Brain (% parent) 10 min pi / Plasma (% parent) 10 min pi: 10 min post injection; for Brain (% parent) 30 min pi / Plasma (% parent) 30 min pi: 30 min post injection; for Brain (% parent) 60 min pi / Plasma (% parent) 60 min pi: 60 min post injection; for Plasma (% parent) 10 min pi / Plasma (% parent) 30 min pi / Plasma (% parent) 60 min pi: rat plasma.
Procedure: The amount of brain or plasma activity that was due to parent test compound was tested up to 1 hour post-administration.
Adult male Wistar rats (150-200 g) were injected with approximately 20 MBq of test compound. Brain and plasma samples were analysed by HPLC at 10, 30 and 60 minutes pi.

Setting [6] is: non-radioactive analogues tested, against 0.3 nM [3H]PK-11195, 15 minutes at 25° C., read-out: Rat Heart Ki.
The mark [7] stands for this setting: non-radioactive analogues tested, against 0.3 nM [3H]PK-11195, 15 minutes at 25° C., read-out: Human Ki.

Read-outs that look alike come from different tables or passages of the source.

Sequence of human PBR (P30536 whole entry): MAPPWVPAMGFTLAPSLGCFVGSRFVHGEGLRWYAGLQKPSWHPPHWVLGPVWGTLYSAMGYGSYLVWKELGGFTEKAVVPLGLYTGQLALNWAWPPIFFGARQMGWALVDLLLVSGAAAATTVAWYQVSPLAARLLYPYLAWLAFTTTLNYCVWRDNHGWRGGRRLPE
Procedure for In vivo biodistribution: Adult male Wistar rats (200-300 g) were injected with 1-3 MBq of test compound via the lateral tail vein. At 2, 10, 30 or 60 min (n=3) after injection, rats were euthanised and tissues or fluids were sampled for radioactive measurement on a gamma counter.

The term Ki denotes a dissociation constant, usually derived from enzyme kinetics or from competition with a known ligand. Regarding `CCN(CC)C(=O)[C@H]1CCCc2c1c1c(OC)cccc1n2CC[18F]` [PET Tracer of Invention], the Ki at Wistar rat heart PBR (setting [6]) stood at 0.87 nM. Moreover, the Ki on human PBR (setting [7]) is 9.17 nM. Further, in series [1], the “racemisation after incubation in human plasma” value is reported as “No racemisation was observed”. Moreover, the “racemisation after incubation in rat liver S9 fraction” value in series [2] is given as “did not racemise”. For the same compound, on PBR [3], the “Blood (% of vehicle), PK11195 block” value is 289 % of vehicle; the “Lungs (% of vehicle), PK11195 block” value is listed as 14 % of vehicle; the “Muscle (% of vehicle), PK11195 block” value was 131 % of vehicle; the “Olfactory bulb uptake (% of vehicle), PK11195 block” value is given as 43 % of vehicle. For the same compound, on PBR [3], the “Striata uptake (% of vehicle), PK11195 block” value was 117 % of vehicle; the “Blood (% of vehicle), Non-radioactive Analogue block” value was 253 % of vehicle; the “Lungs (% of vehicle), Non-radioactive Analogue block” value is 12 % of vehicle; the “Muscle (% of vehicle), Non-radioactive Analogue block” value is 143 % of vehicle. In addition, on PBR [3], the “Olfactory bulb uptake (% of vehicle), Non-radioactive Analogue block” value was 37 % of vehicle and the “Striata uptake (% of vehicle), Non-radioactive Analogue block” value is 114 % of vehicle. Besides, at PBR [4], the “Naïve brain stem % specific binding, Unlabelled ligand” value came out at 70 % specific binding; the “Olfactory bulb % specific binding, Unlabelled ligand” value was 77 % specific binding; the “Naïve brain stem % specific binding, PK11195” value worked out at 70 % specific binding; the “Olfactory bulb % specific binding, PK11195” value is 75 % specific binding. For the same compound, at PBR [4], the “FNA brain stem % specific binding, Unlabelled ligand” value is on record as 86 % specific binding and the “FNA brain stem % specific binding, PK11195” value is 86 % specific binding. Besides, in “In vivo biodistribution”, the “OB:Str 30 min” value worked out at 3.2, the “OB 30 min” value is 0.45 % ID/g and the “Brain 2 min” value turned out to be 0.53 % ID/g. For the same compound, in series [5], the “Brain (% parent) 10 min pi” value came to 98 ± 2 % parent, the “Brain (% parent) 30 min pi” value stood at 96 ± 2 % parent, the “Brain (% parent) 60 min pi” value came to 94 ± 2 % parent and the “Plasma (% parent) 10 min pi” value is listed as 70 ± 18 % parent. For the same compound, in series [5], the “Plasma (% parent) 30 min pi” value stood at 41 ± 16 % parent and the “Plasma (% parent) 60 min pi” value was determined as 21 ± 5 % parent.

Regarding `CCN(CC)C(=O)[C@@H]1CCCc2c1c1c(OC)cccc1n2CC[18F]` [Alternative Enantiomer], the Ki on Wistar rat heart PBR (setting [6]) came out at 3.87 nM. Moreover, the Ki at human PBR (setting [7]) stood at 14.1 nM. Also, in the series “In vivo biodistribution”, the “OB:Str 30 min” value worked out at 2.9, the “OB 30 min” value was 0.23 % ID/g and the “Brain 2 min” value was 0.53 % ID/g.

In turn, `CCN(CC)C(=O)C1CCCc2c1c1c(OC)cccc1n2CC[18F]` (racemic) [Racemate] had a Ki on Wistar rat heart PBR of 1.47 nM. Further, on human PBR, the affinity, expressed as Ki, was 11.5 nM. For the same compound, at PBR [3], the “Blood (% of vehicle), PK11195 block” value is 247 % of vehicle; the “Lungs (% of vehicle), PK11195 block” value is reported as 13 % of vehicle; the “Muscle (% of vehicle), PK11195 block” value was 90 % of vehicle; the “Olfactory bulb uptake (% of vehicle), PK11195 block” value is recorded as 37 % of vehicle. Further, at PBR [3], the “Striata uptake (% of vehicle), PK11195 block” value is given as 114 % of vehicle; the “Blood (% of vehicle), Non-radioactive Analogue block” value is on record as 289 % of vehicle; the “Lungs (% of vehicle), Non-radioactive Analogue block” value is on record as 11 % of vehicle; the “Muscle (% of vehicle), Non-radioactive Analogue block” value is 140 % of vehicle. Further, on PBR [3], the “Olfactory bulb uptake (% of vehicle), Non-radioactive Analogue block” value was 59 % of vehicle and the “Striata uptake (% of vehicle), Non-radioactive Analogue block” value is 124 % of vehicle. For the same compound, on PBR [4], the “Naïve brain stem % specific binding, Unlabelled ligand” value is 21 % specific binding; the “Olfactory bulb % specific binding, Unlabelled ligand” value is 59 % specific binding; the “Naïve brain stem % specific binding, PK11195” value is listed as 13 % specific binding; the “Olfactory bulb % specific binding, PK11195” value is 67 % specific binding. In addition, at PBR [4], the “FNA brain stem % specific binding, Unlabelled ligand” value was determined as 72 % specific binding and the “FNA brain stem % specific binding, PK11195” value amounted to 69 % specific binding. Further, in the series “In vivo biodistribution”, the “OB:Str 30 min” value is given as 3.0, the “OB 30 min” value is reported as 0.36 % ID/g and the “Brain 2 min” value stood at 0.52 % ID/g. For the same compound, in series [5], the “Brain (% parent) 10 min pi” value is recorded as 100 ± 0 % parent, the “Brain (% parent) 30 min pi” value turned out to be 97 ± 1 % parent, the “Brain (% parent) 60 min pi” value was found to be 91 ± 2 % parent and the “Plasma (% parent) 10 min pi” value was 81 ± 4 % parent. In series [5], the “Plasma (% parent) 30 min pi” value was found to be 49 ± 12 % parent and the “Plasma (% parent) 60 min pi” value worked out at 28 ± 1 % parent.
